Like-named read-outs stand apart in the source and are kept apart here.
Key:
Tyk2 = molecular target: T1, Tyk2 (Homo sapiens, UniProt P29597); experiment: Tyk2 enzyme inhibition test (LANCE method); type: biochemical; conditions: for inhibition at 1 µM / Inhibitory rate (%) Tyk2 1 μM: test compound 1 μM; for inhibition at 1 µM: read-out: Inhibitory rate (%) Tyk2 1 μM
T1 construct: purchased Invitrogen
Outline: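 Recombinant Tyk2 (375 ng/mL stock) with ULight-JAK1 peptide (300 nM stock) and ATP (30 μM stock) in HEPES pH 7.5/MgCl2/EGTA/DTT buffer, 1 h at room temperature. Stopped with EDTA plus Eu-anti-phosphotyrosine antibody; TR-FRET read at 665 nm after 1 h. No-enzyme wells define 100% inhibition.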

JAK1 = molecular target: T2, JAK1 (Homo sapiens, UniProt P23458); experiment: JAK1 enzyme inhibition test (LANCE method); type: biochemical; conditions: for inhibition at 10 µM: read-out: Inhibitory rate (%) JAK1 10 μM
T2 construct: purchased Invitrogen
T2 sequence (P23458 whole entry): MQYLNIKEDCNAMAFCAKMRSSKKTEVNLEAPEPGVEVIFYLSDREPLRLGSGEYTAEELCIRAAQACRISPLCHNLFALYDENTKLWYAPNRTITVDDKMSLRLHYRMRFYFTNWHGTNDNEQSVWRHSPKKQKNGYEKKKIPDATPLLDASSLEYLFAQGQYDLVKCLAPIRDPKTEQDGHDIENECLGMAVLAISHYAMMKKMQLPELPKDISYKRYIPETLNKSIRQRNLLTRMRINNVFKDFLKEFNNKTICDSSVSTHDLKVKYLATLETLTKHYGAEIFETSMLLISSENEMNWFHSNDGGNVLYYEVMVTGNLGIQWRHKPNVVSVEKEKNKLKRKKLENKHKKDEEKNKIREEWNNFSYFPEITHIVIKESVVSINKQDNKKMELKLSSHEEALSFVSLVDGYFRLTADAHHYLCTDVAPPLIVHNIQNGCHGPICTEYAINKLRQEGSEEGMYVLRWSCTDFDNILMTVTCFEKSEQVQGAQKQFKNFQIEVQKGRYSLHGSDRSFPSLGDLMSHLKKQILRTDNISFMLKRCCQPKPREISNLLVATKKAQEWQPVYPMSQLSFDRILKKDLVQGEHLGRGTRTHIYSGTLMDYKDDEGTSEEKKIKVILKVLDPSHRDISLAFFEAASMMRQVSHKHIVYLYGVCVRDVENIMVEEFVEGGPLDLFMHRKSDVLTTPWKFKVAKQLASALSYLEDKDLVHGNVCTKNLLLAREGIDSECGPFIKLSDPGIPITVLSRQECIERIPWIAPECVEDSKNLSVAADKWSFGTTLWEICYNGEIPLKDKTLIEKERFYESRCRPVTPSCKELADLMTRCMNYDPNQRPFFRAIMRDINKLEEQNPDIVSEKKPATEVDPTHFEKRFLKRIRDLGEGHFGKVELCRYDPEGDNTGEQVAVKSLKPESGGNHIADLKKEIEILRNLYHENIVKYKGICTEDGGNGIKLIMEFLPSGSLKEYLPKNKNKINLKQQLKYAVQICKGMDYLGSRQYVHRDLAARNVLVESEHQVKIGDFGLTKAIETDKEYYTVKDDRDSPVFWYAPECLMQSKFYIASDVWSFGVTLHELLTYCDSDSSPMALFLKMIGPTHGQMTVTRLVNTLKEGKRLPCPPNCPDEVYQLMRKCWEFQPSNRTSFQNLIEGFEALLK
Outline: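 TR-FRET (LANCE) kinase assay using JAK1 at 187.5 ng/mL, ULight-JAK1 peptide at 300 nM and ATP at 150 μM, given as solution concentrations before mixing. Buffer was 50 mM HEPES pH 7.5 with 10 mM MgCl2 and 2 mM DTT, and the reaction ran 1 h at room temperature. Eu anti-phosphotyrosine signal at 665 nm was expressed relative to a no-enzyme well, taken as 100% inhibition.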

[1] = test compound 10 μM (Ex. 182-220), beside Tyk2 1 μM

T1 sequence (P29597 whole entry): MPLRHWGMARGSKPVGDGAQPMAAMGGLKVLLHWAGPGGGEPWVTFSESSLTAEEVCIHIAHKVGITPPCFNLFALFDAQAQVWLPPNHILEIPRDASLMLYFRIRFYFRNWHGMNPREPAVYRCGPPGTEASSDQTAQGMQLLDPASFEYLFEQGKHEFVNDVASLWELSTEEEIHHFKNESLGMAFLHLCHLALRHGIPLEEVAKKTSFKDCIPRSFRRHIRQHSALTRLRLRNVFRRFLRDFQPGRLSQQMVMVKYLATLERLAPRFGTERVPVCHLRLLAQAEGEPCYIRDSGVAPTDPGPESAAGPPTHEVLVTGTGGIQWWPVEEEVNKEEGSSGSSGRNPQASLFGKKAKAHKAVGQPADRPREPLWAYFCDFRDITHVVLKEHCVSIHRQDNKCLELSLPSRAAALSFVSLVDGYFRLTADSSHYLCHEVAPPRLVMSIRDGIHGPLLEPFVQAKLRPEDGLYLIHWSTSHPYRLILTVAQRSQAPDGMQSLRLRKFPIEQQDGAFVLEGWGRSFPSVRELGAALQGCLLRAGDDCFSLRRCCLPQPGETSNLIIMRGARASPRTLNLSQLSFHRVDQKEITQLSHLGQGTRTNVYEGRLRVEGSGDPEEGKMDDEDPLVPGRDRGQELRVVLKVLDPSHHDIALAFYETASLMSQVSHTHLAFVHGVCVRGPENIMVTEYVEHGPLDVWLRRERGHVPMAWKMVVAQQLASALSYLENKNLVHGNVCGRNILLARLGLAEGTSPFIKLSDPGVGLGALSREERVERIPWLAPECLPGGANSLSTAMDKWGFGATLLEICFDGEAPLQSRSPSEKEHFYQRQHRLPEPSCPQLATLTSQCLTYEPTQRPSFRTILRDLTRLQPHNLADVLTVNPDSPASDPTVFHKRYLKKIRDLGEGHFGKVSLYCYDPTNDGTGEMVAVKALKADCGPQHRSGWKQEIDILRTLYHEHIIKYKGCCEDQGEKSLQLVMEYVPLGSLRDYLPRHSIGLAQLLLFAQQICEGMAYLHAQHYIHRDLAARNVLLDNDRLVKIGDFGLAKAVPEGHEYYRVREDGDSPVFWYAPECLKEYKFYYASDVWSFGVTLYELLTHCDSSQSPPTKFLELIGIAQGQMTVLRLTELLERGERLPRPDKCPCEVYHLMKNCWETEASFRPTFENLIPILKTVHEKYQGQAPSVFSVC

Compound	inhibition at 1 µM (Tyk2) [%]	inhibition at 10 µM (JAK1; [1]) [%]	also measured
NC(=O)Cc1ccc(-c2nn(C3CCCC3)c3cc[nH]c(=O)c23)cc1 [Example 182, 2-(4-(1-cyclopentyl-4-oxo-4,5-dihydro-1H-pyrazolo[4,3-c]pyridin-3-yl)phenyl)acetamide]	98	98	–
NC(=O)c1cc(-c2nn([C@H]3CC[C@H](O)CC3)c3cc[nH]c(=O)c23)cs1 [Example 183, 4-(1-(trans-4-hydroxycyclohexyl)-4-oxo-4,5-dihydro-1H-pyrazolo[4,3-c]pyridin-3-yl)thiophene-2-carboxamide]	100	100	–
NC(=O)c1cc(-c2nn([C@H]3CC[C@@H](O)CC3)c3cc[nH]c(=O)c23)cs1 [Example 184, 4-(1-(cis-4-hydroxycyclohexyl)-4-oxo-4,5-dihydro-1H-pyrazolo[4,3-c]pyridin-3-yl)thiophene-2-carboxamide]	99	100	–
O=c1[nH]cc(Cl)c2c1c(-c1ccc(CN3CCOCC3)cc1)nn2-c1c(F)cccc1F [Example 185, 7-chloro-1-(2,6-difluorophenyl)-3-(4-(morpholin-4-ylmethyl)phenyl)-1,5-dihydro-4H-pyrazolo[4,3-c]pyridin-4-one]	99	72	–
O=C1OCCN1Cc1ccc(-c2nn(-c3c(F)cccc3F)c3c(Cl)c[nH]c(=O)c23)cc1 [Example 186, 7-chloro-1-(2,6-difluorophenyl)-3-(4-((2-oxo-1,3-oxazolidin-3-yl)methyl)phenyl)-1,5-dihydro-4H-pyrazolo[4,3-c]pyridin-4-one]	99	82	–
CC(C)(C#N)c1ccc(-c2nn(-c3c(F)cccc3F)c3c(Cl)c[nH]c(=O)c23)cc1 [Example 187, 2-(4-(7-chloro-1-(2,6-difluorophenyl)-4-oxo-4,5-dihydro-1H-pyrazolo[4,3-c]pyridin-3-yl)phenyl)-2-methylpropanenitrile]	98	83	–
CC(C)(C(N)=O)c1ccc(-c2nn(-c3c(F)cccc3F)c3c(Cl)c[nH]c(=O)c23)cc1 [Example 188, 2-(4-(7-chloro-1-(2,6-difluorophenyl)-4-oxo-4,5-dihydro-1H-pyrazolo[4,3-c]pyridin-3-yl)phenyl)-2-methylpropanamide]	100	84	–
Cn1cc(-c2nn(-c3c(F)cccc3F)c3c(Cl)c[nH]c(=O)c23)cn1 [Example 189, 7-chloro-1-(2,6-difluorophenyl)-3-(1-methyl-1H-pyrazoI-4-yl)-1,5-dihydro-4H-pyrazolo[4,3-c]pyridin-4-one]	100	92	–
NC(=O)Cn1cc(-c2nn(-c3c(F)cccc3F)c3c(Cl)c[nH]c(=O)c23)cn1 [Example 190, 2-(4-(7-chloro-1-(2,6-difluorophenyl)-4-oxo-4,5-dihydro-1H-pyrazolo[4,3-c]pyridin-3-yl)-1H-pyrazol-1-yl)acetamide]	99	81	–
N#CCNC(=O)c1cc(-c2nn(-c3c(F)cccc3F)c3c(Cl)c[nH]c(=O)c23)cs1 [Example 191, 4-(7-chloro-1-(2,6-difluorophenyl)-4-oxo-4,5-dihydro-1H-pyrazolo[4,3-c]pyridin-3-yl)-N-(cyanomethyl)thiophene-2-carboxamide]	100	98	–
O=C(c1cc(-c2nn(-c3c(F)cccc3F)c3c(Cl)c[nH]c(=O)c23)cs1)N1CCOCC1 [Example 192, 7-chloro-1-(2,6-difluorophenyl)-3-(5-(morpholin-4-ylcarbonyl)-3-thienyl)-1,5-dihydro-4H-pyrazolo[4,3-c]pyridin-4-one]	99	94	–
O=C(NN1CCOCC1)c1cc(-c2nn(-c3c(F)cccc3F)c3c(Cl)c[nH]c(=O)c23)cs1 [Example 193, 4-(7-chloro-1-(2,6-difluorophenyl)-4-oxo-4,5-dihydro-1H-pyrazolo[4,3-c]pyridin-3-yl)-N-(morpholin-4-yl)thiophene-2-carboxamide]	100	99	–
CNC(=O)c1ccc(-c2nn(-c3c(F)cccc3F)c3c(Cl)c[nH]c(=O)c23)cc1 [Example 194, 4-(7-chloro-1-(2,6-difluorophenyl)-4-oxo-4,5-dihydro-1H-pyrazolo[4,3-c]pyridin-3-yl)-N-methylbenzamide]	100	67	–
O=C1CCCN1c1ccc(-c2nn(-c3c(F)cccc3F)c3c(Cl)c[nH]c(=O)c23)cc1 [Example 195, 7-chloro-1-(2,6-difluorophenyl)-3-(4-(2-oxopyrrolidin-1-yl)phenyl)-1,5-dihydro-4H-pyrazolo[4,3-c]pyridin-4-one]	100	79	–
CC1(O)CCC(n2nc(-c3ccc(S(N)(=O)=O)cc3)c3c(=O)[nH]ccc32)CC1 (centres unmarked) [Example 196, 4-(1-(4-hydroxy-4-methylcyclohexyl)-4-oxo-4,5-dihydro-1H-pyrazolo[4,3-c]pyridin-3-yl)benzenesulfonamide]	100	100	–
CC1(O)CCC(n2nc(-c3ccc(S(N)(=O)=O)cc3)c3c(=O)[nH]ccc32)CC1 (centres unmarked) [Example 197, 4-(1-(4-hydroxy-4-methylcyclohexyl)-4-oxo-4,5-dihydro-1H-pyrazolo[4,3-c]pyridin-3-yl)benzenesulfonamide]	–	–	Inhibitory rate (%) Tyk2 1 μM (Tyk2): 98%; Inhibitory rate (%) JAK1 10 μM (JAK1; [1]): 99%
CC1(O)CCC(n2nc(-c3csc(C(N)=O)c3)c3c(=O)[nH]ccc32)CC1 (centres unmarked) [Example 198, 4-(1-(4-hydroxy-4-methylcyclohexyl)-4-oxo-4,5-dihydro-1H-pyrazolo[4,3-c]pyridin-3-yl)thiophene-2-carboxamide]	100	100	–
CC1(O)CCC(n2nc(-c3csc(C(N)=O)c3)c3c(=O)[nH]ccc32)CC1 (centres unmarked) [Example 199, 4-(1-(4-hydroxy-4-methylcyclohexyl)-4-oxo-4,5-dihydro-1H-pyrazolo[4,3-c]pyridin-3-yl)thiophene-2-carboxamide]	–	–	Inhibitory rate (%) Tyk2 1 μM (Tyk2): 100%; Inhibitory rate (%) JAK1 10 μM (JAK1; [1]): 99%
O=c1[nH]cc(Cl)c2c1c(C1CC1)nn2-c1c(F)cccc1F [Example 208, 7-chloro-3-cyclopropyl-1-(2,6-difluorophenyl)-1,5-dihydro-4H-pyrazolo[4,3-c]pyridin-4-one]	–	–	inhibition at 10 µM (Tyk2; test compound 10 μM, read-out: Inhibitory rate (%) Tyk2 10 μM): 83%; inhibition at 10 µM (JAK1; test compound 10 μM): 28%

Now from value to compound, other results behind:

inhibition at 1 µM (Tyk2) [%]	inhibition at 10 µM (JAK1; [1]) [%]	Compound	also measured
98	22	N#Cc1cc(-c2nn(-c3c(F)cccc3F)c3c(Cl)c[nH]c(=O)c23)ccc1N1CCOCC1 [Example 200, 5-(7-chloro-1-(2,6-difluorophenyl)-4-oxo-4,5-dihydro-1H-pyrazolo[4,3-c]pyridin-3-yl)-2-(morpholin-4-yl)benzonitrile]	–
97	96	N#Cc1ccc(-c2nn(C3CCCC3)c3cc[nH]c(=O)c23)cc1 [Example 201, 4-(1-cyclopentyl-4-oxo-4,5-dihydro-1H-pyrazolo[4,3-c]pyridin-3-yl)benzonitrile]	–
87	80	N#Cc1cccc(-c2nn(C3CCCC3)c3cc[nH]c(=O)c23)c1 [Example 202, 3-(1-cyclopentyl-4-oxo-4,5-dihydro-1H-pyrazolo[4,3-c]pyridin-3-yl)benzonitrile]	–
100	81	O=c1[nH]cc(Cl)c2c1c(-c1csc(CN3CCOCC3)c1)nn2-c1c(F)cccc1F [Example 203, 7-chloro-1-(2,6-difluorophenyl)-3-(5-(morpholin-4-ylmethyl)-3-thienyl)-1,5-dihydro-4H-pyrazolo[4,3-c]pyridin-4-one]	–
98	98	O=c1[nH]ccc2c1c(-c1cn[nH]c1)nn2C1CCCC1 [Example 204, 1-cyclopentyl-3-(1H-pyrazol-4-yl)-1,5-dihydro-4H-pyrazolo[4,3-c]pyridin-4-one]	–
97	34	O=c1[nH]cc(Cl)c2c1c(-c1cnn(C3CCOCC3)c1)nn2-c1c(F)cccc1F [Example 205, 7-chloro-1-(2,6-difluorophenyl)-3-(1-(tetrahydro-2H-pyran-4-yl)-1H-pyrazol-4-yl)-1,5-dihydro-4H-pyrazolo[4,3-c]pyridin-4-one]	–
100	45	O=c1[nH]cc(Cl)c2c1c(-c1ccc(N3CCOCC3)c(F)c1)nn2-c1c(F)cccc1F [Example 206, 7-chloro-1-(2,6-difluorophenyl)-3-(3-fluoro-4-(morpholin-4-yl)phenyl)-1,5-dihydro-4H-pyrazolo[4,3-c]pyridin-4-one]	–
100	73	O=c1[nH]cc(Cl)c2c1c(-c1ccc(N3CCCOCC3)cc1)nn2-c1c(F)cccc1F [Example 207, 7-chloro-1-(2,6-difluorophenyl)-3-(4-(1,4-oxazepan-4-yl)phenyl)-1,5-dihydro-4H-pyrazolo[4,3-c]pyridin-4-one]	–
99	99	CCC1(O)CCC(n2nc(-c3ccc(S(N)(=O)=O)cc3)c3c(=O)[nH]ccc32)CC1 (centres unmarked) [Example 209, 4-(1-(4-ethyl-4-hydroxycyclohexyl)-4-oxo-4,5-dihydro-1H-pyrazolo[4,3-c]pyridin-3-yl)benzenesulfonamide]	–
